Measurements published in US8916572B2, “Bis-quinazoline derivatives as inhibitors for epidermal growth factor receptor (EGFR) tyrosine kinase” (Tetranov International, Inc., priority 2012, dated 2014).

Tested on: human lung adenocarcinoma epithelial cell line A549
Assay: Growth inhibition in vitro of human tumor cell line A549 (MTT assay)
Assay type: cell-based
Conditions: for IC50: Homo sapiens, A549 cells, MTT assay, 24 hours incubation, read-out: IC 50, tumor cell growth inhibition in human tumor cell line A549
Protocol: Growth Inhibition In Vitro of Human Tumor Cell Line A549 by Examples:
Human lung adenocarcinoma epithelial cell line A549 was obtained from American Type Culture Collection (ATCC) and maintained in Dulbecco modified eagle medium supplemented with 10% fetal bovine serum. MTT assay was performed using the MTT cell proliferation assay kit (ATCC). Briefly, 3×10^3 A549 cells/well were plated in 96 well plates overnight and then incubated with different concentrations of tested compounds or vehicle controls for 24 hours. Ten μl of MTT reagent was added to each well for 120 min. The formazan crystal was dissolved with MTT detergent, and the OD value was measured at 570 nm using a SpectraMax M3 microplate reader (Molecular Devices). Data were normalized to vehicle controls and processed using GraphPad Prism 5.00.

| IC50 | SMILES | in vitro activity compared to Erlotinib in cell line A549 (human lung adenocarcinoma epithelial cell line A549, comparison in words) |
| --- | --- | --- |
| > 80 µM | C#Cc1cccc(Nc2ncnc3cc(OCCOCCOCCOCCOc4cc5c(Nc6cccc(C#C)c6)ncnc5cc4OCCOC)c(OCCOC)cc23)c1 [dimer 3, N-(3-ethynylphenyl)-6-(2-(2-(2-(2-((4-((3-ethynylphenyl)amino)-6-(2-methoxyethoxy)quinazolin-7-yl)oxy)ethoxy)ethoxy)ethoxy)ethoxy)-7-(2-methoxyethoxy)quinazolin-4-amine] | – |
| > 80 µM | C#Cc1cccc(Nc2ncnc3cc(OCCOCCOCCOCCOc4cc5ncnc(Nc6cccc(C#C)c6)c5cc4OCCOC)c(OCCOC)cc23)c1 [dimer 1, 7,7′-((((oxybis(ethane-2,1-diyl))bis(oxy))bis(ethane-2,1-diyl))bis(oxy))bis(N-(3-ethynylphenyl)-6-(2-methoxyethoxy)quinazolin-4-amine)] | – |
| 5.1 µM | C#Cc1cccc(Nc2ncnc3cc(OCCOC)c(OCCOCCOCCOCCOc4cc5c(Nc6cccc(C#C)c6)ncnc5cc4OCCOC)cc23)c1 [dimer 2, 6,6′-((((oxybis(ethane-2,1-diyl))bis(oxy))bis(ethane-2,1-diyl))bis(oxy))bis(N-(3-ethynylphenyl)-7-(2-methoxyethoxy)quinazolin-4-amine)] | higher activity than Erlotinib |
| 9.9 µM | C#Cc1cccc(Nc2ncnc3cc(OCCOC)c(OCCOC)cc23)c1 [Erlotinib, reference compound] | – |
